Laboratory results taken from patent US20150025131A1 (priority 2013, published 2015).
Values after ≈ are worked out from the molar mass of the structure shown. “Also recorded” adds a separate entry of the source. Read-outs that look alike come from different tables or passages of the source.

Columns and labels:
[1] = MTT cytotoxicity assay, CC1; type: cell-based; settings: rat, CC1 rat epithelial liver cells, 48 h incubation, read-out: Cytotoxicity (IC50 μg/mL) CC1 cells
Procedure: (§1) Cell cytotoxicity assay was performed using three different cell lines NIH 3T3 (mouse embryo, fibroblast cells), CC1 (rat, epithelial, liver cell) and MDBK (bovine kidney) cells using MTT (3-[4,5-dimethylthiazole-2-yl]-2,5-diphenyl-tetrazolium bromide) colorimetric assay. Briefly 3T3 were grown in DMEM, supplemented with 10% of fetal bovine serum (FBS), and 1% penicillin-streptomycin whereas CC1 (rat epithelial liver cells) were cultured in EMEM, 2 mM Glutamine, 1% Non-Essential Amino Acids (NEAA), 20 mM HEPES, 10% Foetal Bovine Serum (FBS) and 1% penicillin-streptomycin, and MDBK cells were grown in 10% of fetal bovine serum (FBS) in 75 cm^2 flask, and incubated in 5% CO2 incubator at 37° C. until they attain 70% confluency. Cells were then harvested by centrifuging at 200 g for 5 min at 25° C., counted using heamocytometer and their concentration was adjusted to 6×10^4 cells/mL. 100 μL of Cells were then plated in 96 well plate and incubated overnight. Next day the supernatant was carefully removed and 200 μL of fresh medium was added with three different concentration of compound (1, 10, 50) μg/mL. […] The extent of MTT reduction to formazan within cells was calculated by measuring the absorbance at 540 nm; using a micro plate reader (Spectra Max plus 340, Molecular Devices, Calif., USA). […] The percent inhibition was calculated by using the following formula: […]

[2] = system: ROS production from human peripheral whole blood phagocytes; assay: Luminol enhanced chemiluminescence oxidative burst, whole blood; type: cell-based
Procedure: (§2) Intracellular effect was determined using human peripheral whole blood phagocytes and isolated neutrophils and from mice peritoneum macrophages, where luminol-enhanced chemillumenescence assay was applied. The effect on myeloperoxidase independent ROS production was determined using lucigenin on murine macrophages RAW.267 cells.
(§3) Table 2. […] 267 cells (murine macrophages). DPI is used as standard drug. Reading presents mean±SD of three determinations.
(§4) Luminol enhanced chemiluminescence technique was applied to study the effect of compound on ROS from phagocytes, Using whole blood, neutrophil and macrophages Briefly, 25 μL diluted whole blood (1:50 dilution in sterile HBSS^++) or 25 μL of PMNs (1×10^6), or 25 μL of isolated macrophages (1×10^6) were incubated with 25 μL of compound in triplicates and using three different concentrations (1, 10 and 100 μg/mL) using white 96 wells plates. Wells received HBSS^++ and cells only without compound served as positive control. 25 μL of serum opsonized zymosan-A (SOZ), followed by 25 μL luminol (7×10^−5 M), was added to each well to maintain a volume of 100 μL/well. Plates were then incubated at 37° C. for 30 minutes in the thermostated chamber of the luminometer. Results were monitored as relative light unit (RLU) reading, with peak and total integral values set with repeated scans at 60 seconds intervals, and 1 second points measuring time.

[3] = system: non-activated Jurkat cell proliferation; assay: Jurkat T cell proliferation; type: cell-based; settings: Homo sapiens; non-activated Jurkat cells; read-out: Jurkat T cell Proliferation (IC50 μg /mL)
Procedure: In order to monitor the effect of this compound on cellular immune response particularly on T cells, the compound was tested on thymidine incorporated T cell proliferation assay.

MDBK bovine kidney cells = assay: MTT cytotoxicity assay, MDBK; type: cell-based
Procedure: as §1

IL-2 production = assay: IL-2 cytokine production; type: cell-based; settings: read-out: IL-2 inhibition (IC50 μg/mL)
rheumatoid factor = assay: Adjuvant induced arthritis model, serum RA factor; type: in vivo, Sprague Dawley rats; settings: AIA rats, daily intraperitoneal; Patuletin 25 mg/kg, indomethacin 5 mg/kg
Procedure: (§5) All studies were carried out using Female Sprague Dawley (SD) rats weighing 150-250 gms. Animals were kept at 21±2° C. and on a 12-h light/dark cycle, received standardized pelleted diet and tap water. Experiments were performed under the ethical guidelines of the International Association for the study of pain in conscious animals. Each group contains 12 animals with randomly distributed weights into each treatment group.
(§6) Arthritis was induced by injecting freshly prepared 100 μL of 1 mg suspension of lyophilized Mycobacterium tuberculosis H37Ra (MT H37Ra; DIFCO Laboratories, Detroit, Mich., USA), subcutaneously at the rat tail base using sterile hypodermic needle. Inoculation was carried out under anesthesia with a combination of 20 mg/kg ketamine and 5 mg/kg xylazine, injected intraperitoneally. Compound and the reference drug were administered daily, intraperitoneally using sterile syringes. […]
Measurement of RA factor in rat serum was determined using Tina-quant RFII Kit (Roche Diagnostics, USA) and automated analyzers according to manufacturer's instructions. The test principle involves the reaction of latex bound heat inactivated IgG (antigen) with RF antibodies in the sample to form Ag/Ab complex resulting in agglutination which can be measured turbidimetrically.

[4] = system: ROS production from mice peritoneal macrophages; assay: Luminol enhanced chemiluminescence oxidative burst, mice peritoneal macrophages; type: cell-based; settings: Mus musculus, Peritoneal macrophage, serum opsonized zymosan, read-out: Myeloperoxidase dependent Oxidative Burst (IC50 μg/mL) Macrophages
Procedure: as §2, §3
NMRI mice of 25 to 30 gm weight were injected aseptically with 1 mL of heat inactivated fetal bovine serum (FBS) in the peritoneum cavity, using sterile 1 mL syringe and mice were kept for further 72 h. […] Cells were counted and concentration was adjusted to 1×10^6/mL for chemiluminescence assay.
as §4, with “Wells received HBSS^++ and cells only without compound served as positive control. 25 μL of serum opsonized zymosan-A (SOZ), followed by 25 μL luminol (7×10^−5 M), was added to each well to maintain a volume of 100 μL/well. Plates were then incubated at 37° C. for 30 minutes in the thermostated chamber of the luminometer.” left out

serum IL-1β = assay: Adjuvant induced arthritis model, serum IL-1β; type: in vivo, Sprague Dawley rats; settings: AIA rats, daily intraperitoneal; Patuletin 25 mg/kg, indomethacin 5 mg/kg
Procedure: as §5
as §6, with “syringes. The positive control received vehicle (5% DMSO+PBS) or saline only; treatment groups received test compounds (25 mg/kg), whereas reference group received indomethacin (5 mg/kg). The doses of the test compounds were selected after preliminary dose finding studies.” for “syringes.”
The quantitative measurement of TNF-α and IL-1β was done in serum of all groups of animals including arthritic and non-arthritic using commercial ELISA assay kits (Abcam, USA) according to the manufacturer's instructions. […]

Compound: COc1c(O)cc2oc(-c3ccc(O)c(O)c3)c(O)c(=O)c2c1O [Patuletin, 3,5,7,3′,4′-pentahydroxy-6-methoxy flavones]
- IC50 at 48 h [1]: 5.2 µg/mL (≈ 15.7 µM)
- IC50 ([2]; luminol enhanced, serum opsonized zymosan, read-out: Myeloperoxidase dependent Oxidative Burst (IC50 μg/mL) Whole blood): 3.5 ± 0.5 µg/mL
- IC50 ([2]; read-out: suppression of ROS production from whole blood (IC50), unit inferred): 3.5 µg/mL
- IC50 [3]: 3.47 µg/mL (≈ 10.4 µM)
- cytotoxicity on MDBK bovine kidney cells (in words) (MDBK bovine kidney cells): no cytotoxicity
- IC50 (IL-2 production): 14.8 µg/mL (≈ 44.5 µM)
- level of RA factor (rheumatoid factor) in serum versus arthritic control group (rheumatoid factor): marked decrease
- IC50 [4]: 1.9 µg/mL
- level of IL-1β in serum versus arthritic control group (serum IL-1β): significant decrease; also recorded: marked decrease
